# Structures can show the parent of a compound that is named as a salt. Where two headings read alike, the source gives them in different places.
# Columns and labels:
# [1] = system: DENV-3 strain H87; assay: Tetravalent RT-qPCR assay, serotype 3; assay type: cell-based, Dengue virus; conditions: for EC50: Dengue virus, DENV3, 72 h, RT-qPCR serotype 3 H87, Vero cells, day 3; for SI: RT-qPCR serotype 3 H87
# Method: (§1) The antiviral activity of the compounds of the invention was tested against DENV-1 strain TC974#666 (NCPV), DENV-2 strain 16681, DENV-3 strain H87 (NCPV) and DENV-4 strain H241 (NCPV) in a RT-qPCR assay. Therefore, Vero cells were infected with either DENV-1, or -2, or -3, or -4 in the presence or absence of test compounds. At day 3 post-infection, the cells were lysed and cell lysates were used to prepare cDNA of both a viral target (the 3′UTR of DENV; Table 2) and a cellular reference gene (1-actin, Table 2). Subsequently, a duplex real time PCR was performed on a Lightcycler480 instrument. The generated Cp value is inversely proportional to the amount of RNA expression of these targets. Inhibition of DENV replication by a test compound results in a shift of Cp's for the 3′UTR gene. On the other hand, if a test compound is toxic to the cells, a similar effect on β-actin expression will be observed. The comparative ΔΔCp method is used to calculate EC50, which is based on the relative gene expression of the target gene (3′UTR) normalized with the cellular housekeeping gene (β-actin). In addition, CC50 values are determined based on the Cp values acquired for the housekeeping gene β-actin.
# (§2) The culture medium consisted of minimal essential medium supplemented with 2% of heat-inactivated fetal calf serum, 0.04% gentamycin (50 mg/mL) and 2 mM of L-glutamine. Vero cells, obtained from ECACC, were suspended in culture medium and 75 μL/well was added in 96-well plates (10000 cells/well), which already contain the antiviral compounds. […] In addition, each plate contains wells which are assigned as virus controls (containing cells and virus in the absence of compound) and cell controls (containing cells in the absence of virus and compound). Once the cells were added in the plates, the plates were incubated in a fully humidified incubator (37° C., 5% CO2) until the next day. Dengue viruses serotype-1, 2, 3 and 4 were diluted in order to obtain a Cp of ˜22-24 in the assay. Therefore, 25 μL of virus suspension was added to all the wells containing test compound and to the wells assigned as virus control. In parallel, 25 μL of culture medium was added to the cell controls. Next, the plates were incubated for 3 days in a fully humidified incubator (37° C., 5% CO2). After 3 days, the supernatant was removed from the wells and the cells were washed twice with ice-cold PBS (˜100 μL). The cell pellets within the 96-well plates were stored at −80° C. for at least 1 day. Next, RNA was extracted using the Cells-to-CT™ lysis kit, according to the manufacturer's guideline (Life Technologies). The cell lysates can be stored at −80° C. or immediately used in the reverse transcription step.
# (§3) In preparation of the reverse transcription step, mix A (table 3A) was prepared and 7.57 μL/well was dispensed in a 96-well plate. After addition of 5 μL of the cell lysates, a five minute denaturation step at 75° C. was performed (table 3B). Afterwards, 7.43 μL of mix B was added (table 3C) and the reverse transcription step was initiated (table 3D) to generate cDNA.
# (§4) Finally, a RT-qPCR mix was prepared, mix C (table 4A), and 22.02 μL/well was dispensed in 96-well LightCycler qPCR plates to which 3 μL of cDNA was added and the qPCR was performed according to the conditions in table 4B on a LightCycler 480.
# (§5) Using the LightCycler software and an in-house LIMS system, dose response curves for each compound were calculated and the half maximal effective concentration (EC50) and the half maximal cytotoxic concentration (CC50) were determined (Tables 5-8).
# [2] = system: Vero cells; assay: in vitro; assay type: cell-based; conditions: African green monkey, 3 days
# Method: as §1, §2, §3, §4, §5
# [3] = in vitro; assay type: cell-based; conditions: African green monkey, CC50
# Method: as §1, §2, §3, §4, §5
# [4] = system: DENV-1 strain TC974#666; assay: Tetravalent RT-qPCR assay, serotype 1; assay type: cell-based, Dengue virus; conditions: for EC50: Dengue virus, DENV1, 72 h, RT-qPCR serotype 1 TC974#666, Vero cells, day 3; for SI: RT-qPCR serotype 1 TC974#666
# Method: as §1, §2, §3, §4, §5
# [5] = system: DENV-2 strain 16681; assay: Tetravalent RT-qPCR assay, serotype 2; assay type: cell-based, Dengue virus; conditions: for EC50: Dengue virus, DENV2, 72 h, RT-qPCR serotype 2 16681, Vero cells, day 3; for SI: RT-qPCR serotype 2 16681
# Method: as §1, §2, §3, §4, §5
# [6] = system: Vero cells; conditions: African green monkey
# [7] = system: DENV-2 16681 strain; assay: DENV-2 antiviral assay (eGFP-labeled virus in Vero cells); assay type: cell-based, Dengue virus; conditions: for EC50: DENV-2 16681 eGFP, Vero cells, MOI 0.5, 3 days; for SI: SI=CC50/EC50, DENV-2 antiviral assay
# [8] = system: DENV-4 strain H241; assay: Tetravalent RT-qPCR assay, serotype 4; assay type: cell-based, Dengue virus; conditions: for EC50: Dengue virus; for SI: RT-qPCR serotype 4 H241
# Method: as §1, §2, §3, §4, §5
# [9] = in vitro; conditions: African green monkey
# [10] = DENV4, 72 h, RT-qPCR serotype 4 H241, Vero cells, day 3, read-out: EC50
structure (smiles),measurement,setting,value
"COc1cc(NC(C(=O)N2CCc3ccc(C(F)(F)F)cc32)c2ccc(Cl)cc2OCCCC(=O)O)cc(S(C)(=O)=O)c1 (single isomer, unassigned) [Compound 7B]",EC50,[1],5.2 nM
same,SI,[1],>473
same,CC50,[2],> 2500 nM
same,CC50 at 3 days,[3],> 2500 nM
same,EC50,[4],0.13 nM
same,SI,[4],>19200
same,EC50,[5],0.19 nM
same,SI,[5],>13500
same,CC50,[6],11 µM
same,EC50,[7],0.25 nM
same,SI,[7],90600
same,EC50,[8]; [10],24 nM
same,SI,[8],>186
"COc1cc(NC(C(=O)N2CCc3ccc(C(F)(F)F)cc32)c2ccc(Cl)cc2OCCO)cc(S(C)(=O)=O)c1 (single isomer, unassigned) [Compound 4A]",EC50,[1],13 nM
same,SI,[1],>234
same,CC50 at 3 days,[3],> 2500 nM
same,CC50,[9],6 µM
same,EC50,[4],0.75 nM
same,SI,[4],>5470
same,EC50,[5],0.45 nM
same,SI,[5],11700
same,EC50,[7],0.41 nM
same,SI,[7],15000
same,EC50,[8]; [10],44 nM
same,SI,[8],69
"COc1cc(NC(C(=O)N2CCc3cc(OC)c(C(F)(F)F)cc32)c2ccc(Cl)cc2OCCCC(=O)O)cc(S(C)(=O)=O)c1 (single isomer, unassigned) [Compound 8B]",EC50,[1],19 nM
same,SI,[1],796
same,EC50,[4],1.2 nM
same,SI,[4],10500
same,EC50,[5],0.3 nM
same,SI,[5],54300
same,CC50,[6],14 µM
same,EC50,[7],1.2 nM
same,SI,[7],6780
same,EC50,[8]; [10],84 nM
same,SI,[8],88
"COc1cc(NC(C(=O)N2CCc3ccc(C(F)(F)F)cc32)c2ccc(F)cc2OCCO)cc(S(C)(=O)=O)c1 (single isomer, unassigned) [Compound 1B]",EC50,[1],20 nM
same,SI,[1],>127
same,CC50 at 3 days,[3],> 2500 nM
same,EC50,[4],1.5 nM
same,SI,[4],>2860
same,EC50,[5],1.1 nM
same,SI,[5],4670
same,CC50,[6],3.4 µM
same,EC50,[7],1.4 nM
same,SI,[7],>1980
same,EC50,"[8]; DENV4, Vero, 72 h",130 nM
same,SI,[8],23
"COc1cc(NC(C(=O)N2CCc3ccc(OC(F)(F)F)cc32)c2ccc(Cl)cc2OCCCC(=O)O)cc(S(C)(=O)=O)c1 (single isomer, unassigned) [Compound 9B]",EC50,[1],1.7 nM
same,SI,[1],>1840
same,CC50 at 3 days,[3],> 2500 nM
same,EC50,[4],0.1 nM
same,SI,[4],>45500
same,EC50,[5],0.068 nM
same,SI,[5],>56500
same,CC50,[6],13 µM
same,EC50,[7],0.15 nM
same,SI,[7],83000
same,EC50,[8]; [10],7.2 nM
same,SI,[8],1390
"COc1cc(NC(C(=O)N2CCc3ccc(OC(F)(F)F)cc32)c2ccc(F)cc2OCCO)cc(S(C)(=O)=O)c1 (single isomer, unassigned) [Compound 3B]",EC50,[1],13 nM
same,SI,[1],>444
same,CC50 at 3 days,[3],> 2500 nM
same,EC50,[4],1.1 nM
same,SI,[4],>3640
same,EC50,[5],0.9 nM
same,SI,[5],4760
same,CC50,[6],8.7 µM
same,EC50,[7],0.61 nM
same,SI,[7],16300
same,EC50,[8]; [10],72 nM
same,SI,[8],>32
"COc1cc(NC(C(=O)N2CCc3ccc(OC(F)(F)F)cc32)c2ccc(Cl)cc2OCCCC(=O)O)cc(S(C)(=O)=O)c1 (racemic) (as salt: HCl) (hydrate or solvate) [Compound 9, 4-(5-chloro-2-(1-((3-methoxy-5-(methylsulfonyl)phenyl)amino)-2-oxo-2-(6-(trifluoromethoxy)indolin-1-yl)ethyl)phenoxy)butanoic acid]",melting point,,155 °C
"COc1cc(NC(C(=O)N2CCc3cc(OC)c(C(F)(F)F)cc32)c2ccc(Cl)cc2OCCO)cc(S(C)(=O)=O)c1 (single isomer, unassigned) [Compound 5B]",EC50,[1],6.7 nM
same,SI,[1],>752
same,EC50,[4],0.94 nM
same,SI,[4],8640
same,EC50,[5],0.24 nM
same,SI,[5],>17100
same,CC50,[6],8.5 µM
same,EC50,[7],0.23 nM
same,SI,[7],>16800
same,EC50,[8]; [10],26 nM
same,SI,[8],86
"COc1cc(NC(C(=O)N2CCc3ccc(OC(F)(F)F)cc32)c2ccc(Cl)cc2OCCO)cc(S(C)(=O)=O)c1 (single isomer, unassigned) [Compound 6A]",EC50,[1],2.6 nM
same,SI,[1],>1480
same,CC50 at 3 days,[3],> 2500 nM
same,CC50,[9],7.3 µM
same,EC50,[4],0.16 nM
same,SI,[4],>41300
same,EC50,[5],0.16 nM
same,SI,[5],>12600
same,EC50,[7],0.23 nM
same,SI,[7],>12000
same,EC50,[8]; [10],26 nM
same,SI,[8],119
